Non-standard residues stand in square brackets, D forms with d. Residues, ends and D or L forms follow the SMILES beside them. pS = N[C@@H](COP(=O)(O)O)C(=O)O
Legend:
CD4+ T splenocytes = experiment: Collagen-induced arthritis (CIA) DBA/1 mice, ex vivo T splenocyte proliferation with CII (CFSE, FACS); assay type: in vivo, mouse
Description: Next, P140 peptide was administered in a model of mice that develop a RA-like disease (we anticipated to use this mouse model as a negative control of MRL/lpr-lupus prone mice). This model, called collagen-induced arthritis (CIA) mouse model, is the most commonly studied autoimmune model of RA. In this model, autoimmune arthritis is induced by immunizing DBA/1 mice with an emulsion of complete Freund's adjuvant (CFA) and type II collagen (CII), and typically, the first signs of arthritis appear in 21-28 days after immunization (Brand et al., 2007). CIA shares several pathological features with human RA, and CII is a major protein in cartilage, the target tissue of RA. Pathological features include synovial hyperplasia, mononuclear cell infiltration, and cartilage degradation. Susceptibility in these mice is linked to the expression of specific MHC class II genes, DBA/1 have H-2^q haplotype.
P140 peptide was thus administrated intravenously to DBA/1 mice at day −1, +7, +14 and +20 in a setting close to the one we used in MRL/lpr mice (100 μg/injection/mouse). CII in CFA was injected at days +1 and +21 (200 μg, intradermal route). Mouse weight and their clinical score were followed using very classical procedure. Biological parameters were also evaluated (i.e. T cell response, antibody response, joint histology, etc).

Raji cells = experiment: Cellular uptake of fluorescent P140 in Raji cells (flow cytometry); assay type: cell-based, human; conditions: fluorescent peptide in 10% trehalose compared with 5.4% mannitol
From the text: (§1) FIG. 8. Cellular uptake of fluorescent P140 peptide in 5.4% mannitol or 10% trehalose in MRL/lpr B cells and Raji cells as visualized by flow cytometry. B cells were from 12-14 week-old MRL/lpr mice (primary cells); Raji cells are an established cell line derived in 1963 from B-lymphocyte of a patient with Burkitt's lymphoma.
(§2) For P140 peptide activity, HSC70 binding and endocytosis appear to be important. It is believed that endocytosis must occur through the clathrin route. This implies that peptide+excipient should have a size in the range of 30 to 500 nm in diameter. For example P140+mannitol are in the 100 nm region whereas P140+trehalose are below 10 nm and therefore not effective binding to HSC70. […] B cells were from 12-14 week-old MRL/lpr mice (primary cells); Raji cells are an established cell line derived in 1963 from B-lymphocyte of a patient with Burkitt's lymphoma. […] The confocal images show the late endosomal compartment where P140 localizes before homing into lysosomes; DAPI identifies DNA.

MRL/lpr mice = experiment: Survival analysis in MRL/lpr lupus mice; assay type: in vivo, mouse; conditions: female MRL/lpr mice, intravenous, 20 mice per group; NaCl control 25 weeks
Description: It has been determined that this mouse strain carries a mutation in the fas gene. Also, the MRL/lpr is a useful model to study behavioural and cognitive deficits found in autoimmune diseases and the efficacy of immunosuppressive agents [Monneaux et al., 2003, Eur. J. Immunol. 33, 287-296].
Five-week-old female MRL/lpr mice received P140 or peptide P140(MO) intravenously as described (Monneaux et al., 2003, Eur. J. Immunol. 33, 287-296). All experimental protocols were carried out with the approval of the local Institutional Animal Care and Use Committee (CREMEAS). As control, mice were injected with NaCl.
Twenty mice were used for each peptide or NaCl.
Statistical tests were performed using GraphPad Prism version 5.0. The two-way ANOVA test was used to analyze statistical significance of proteinuria differences between control and peptide-treated groups of mice. Survival of control and P140 analogue-treated female MRL/lpr mice was analyzed by the Kaplan-Meier method, and the significance of differences was determined by the log-rank test. For the other variables, statistical significance was assessed using the Student's t-test. p values less than 0.05 were considered significant.

C57BL/6 mice = experiment: K/B×N serum transfer arthritis, curative protocol; assay type: in vivo, mouse
Description: The TCR transgenic mice expressing the KRN and the MHC class II A^g7 molecule (K/B×N mice) have developed a severe inflammatory arthritis. The administration of serum of these mice to healthy recipient mice causes inflammatory arthritis over a period of about 15 days with a peak ignition around day 7 post-injection.
Two mouse serum administrations from K/B×N were performed (day 0 and day 2). The injection of serum (100 μl/mouse) is performed by intra-peritoneal (ip) injection in mice C57BL/6 (or B6) for 8 weeks (n=10); untreated mouse (n=10).
The P140 peptide (100 μg/100 μl; iv retro-orbital) was administered as follows:
Curative treatment: Injection at day 1 and day 4, to guide the peak of inflammatory disease. Preventive treatment: Injection at day −7 and day −2. Bleeding S0 (at day 0) is followed by bloodletting conducted every six days to dispose of serum. The study ends when inflammation has returned to its basal level, to around day 20 (see FIG. 19).
During the peak of inflammation, every day the animals are evaluated, and swelling score of articulation is established. It is ranged from 0 to 4 and based on a joint observation of the animal. In practice, this score is given for each leg (4 values) and these values are added together to get a general score that ranges from 0 to 16 (FIG. 20).

[1] = tested on: peripheral T cells from lupus patients; conditions: cited from earlier work
MRL/lpr B cells = experiment: Cellular uptake of fluorescent P140 in MRL/lpr B cells (flow cytometry, confocal); assay type: cell-based, mouse
From the text: as §1
FIG. 9. Confocal images of B cells of FIG. 10. All confocal images were taken in the same microscopic settings. Rab9 (red) identifies the late endosomal compartment where P140 localizes before homing into lysosomes DAPI (blue) identifies DNA.
as §2

**Q.** For `CC[C@H](C)[C@H](NC(=O)[C@H](Cc1ccccc1)NC(=O)[C@H](C)NC(=O)[C@H](Cc1ccc(O)cc1)NC(=O)CNC(=O)[C@H](CCCNC(=N)N)NC(=O)[C@@H]1CCCN1C(=O)[C@H](CCCCN)NC(=O)CNC(=O)[C@H](COP(=O)(O)O)NC(=O)[C@H](CCCNC(=N)N)NC(=O)[C@H](CCCCN)NC(=O)[C@H](CO)NC(=O)[C@H](Cc1ccc(O)cc1)NC(=O)[C@@H](NC(=O)[C@H](CCSC)NC(=O)[C@H](Cc1c[nH]cn1)NC(=O)[C@@H](NC(=O)[C@@H](N)CCCNC(=N)N)[C@@H](C)CC)C(C)C)C(=O)N[C@@H](CCC(=O)O)C(=O)N[C@@H](Cc1ccc(O)cc1)C(=O)O` [Compound P140] (H-RIHMVYSKR[pS]GKPRGYAFIEY-OH; N-terminus and C-terminus assumed), which “CD4+ T splenocytes proliferation” value (CD4+ T splenocytes; DBA/1 CIA mice, 100 μg/injection i.v. day −1, +7, +14, +20, ex vivo 100 μg CII/mL) is on record?
**A.** strongly diminished

**Q.** What about the “CD8+ T cells proliferation” value (CD4+ T splenocytes; same conditions as CD4+ T cells) of the same compound?
**A.** No effect

**Q.** And the “Cellular uptake (flow cytometry)” value (Raji cells)?
**A.** Much less cellular uptake

**Q.** What about the Median survival (MRL/lpr mice) of the same compound?
**A.** 29 weeks

**Q.** And the Weight loss (C57BL/6 mice; curative protocol (injection day 1 and day 4), from day 2, NaCl 10%)?
**A.** 15%

**Q.** And the Weight gain (C57BL/6 mice; curative protocol, between day 5 and the end of the study, controls 5%)?
**A.** 20%

**Q.** What about the “Inflammation score, maximum” value (C57BL/6 mice; curative protocol, per rear leg, same for controls) of the same compound?
**A.** ~1.5

**Q.** What about the “Proliferation of peripheral T cells from lupus patients” value ([1]; ex vivo (Monneaux et al., 2005)) of the same compound?
**A.** does not induce proliferation

**Q.** What about the “Secretion of regulatory cytokine IL-10 in cell cultures” value ([1]; ex vivo, T cells from lupus patients (Monneaux et al., 2005)) of the same compound?
**A.** high levels

**Q.** What about the “Cellular uptake (flow cytometry)” value (MRL/lpr B cells; fluorescent peptide in 10% trehalose compared with 5.4% mannitol, MRL/lpr B cells) of the same compound?
**A.** Much less cellular uptake

**Q.** And the “Entry into B cells (confocal microscopy)” value (MRL/lpr B cells; peptide in trehalose compared with mannitol)?
**A.** enters B cells much less
